Results as given in US8389679B2, “Targeted antimicrobial moieties” (priority 2009, dated 2013).
Entries after “also recorded” stand apart in the source; their conditions may differ.

Test system: target microorganisms
Experiment: Screen of synthesized peptides for binding to target microorganisms (targeting peptides, Tables 2 and 3)
Conditions: microorganism(s) the targeting peptide was identified as binding to (Table 3)
Experimental: Once noted, these peptides were batch synthesized on a multiplex peptide synthesizer, yielding 5-10 mg of each peptide that could readily be screened for biological activity (e.g., binding activity and/or antimicrobial activity.
Other suitable targeting peptides include the peptides that have been identified as binding to particular target organisms as shown in Table 3 and/or Table 4.

Row | Substance | Target(s)
1 | 1T-135 (FESLLPQATKKIVNNKGSKINKIF; synthetic novel tartgeting peptide IT-135) | A. naeslundii, P. gingivalis; also recorded: S. epidermidis,; also recorded: S. gordonii, S. mitis, S. mutans,; also recorded: S. oralis, S. salivarious,; also recorded: S. sanguinis
2 | 1T-136 (ELLTQIRLALLYSVNEW; synthetic novel tartgeting peptide IT-136) | A. naeslundii, F. nucleatum,; also recorded: P. gingivalis,; also recorded: S. epidermidis, S. gordonii,; also recorded: S. mitis, S. mutans,; also recorded: S. oralis, S. salivarious,; also recorded: S. sanguinis
3 | 1T-137 (PLNFYRAVKENRLPLSEKNINDFTNIKLKVSPKLINLLQESSIFYNFSPKKRNTN; synthetic novel tartgeting peptide IT-137) | A. naeslundii, F. nucleatum,; also recorded: P. gingivalis; also recorded: S. epidermidis,; also recorded: S. gordonii, S. mitis, S. mutans,; also recorded: S. oralis, S. salivarious,; also recorded: S. sanguinis
4 | 1T-138 (YPNEYCIFLENLSLEELKEIKAINGETLNLEEIINERKNLKD; synthetic novel tartgeting peptide IT-138) | A. naeslundii, F. nucleatum,; also recorded: P. gingivalis; also recorded: S. epidermidis,; also recorded: S. gordonii, S. mitis, S. mutans,; also recorded: S. oralis, S. salivarious,; also recorded: S. sanguinis
5 | 1T-139 (AVAGAAVGALLGNDARSTAVGAAIGGALGAGAGELTKNK; synthetic novel tartgeting peptide IT-139) | A. naeslundiiS. gordonii,; also recorded: S. mitis, S. mutans, S. oralis
6 | 1T-140 (IKGTIAFVGEDYVEIRVDKGVKLTFRKSAIANVINNNQQ; synthetic novel tartgeting peptide IT-140) | A. naeslundii, F. nucleatum,; also recorded: P. gingivalis; also recorded: S. epidermidis,; also recorded: S. gordonii, S. mitis, S. mutans,; also recorded: S. oralis, S. salivarious,; also recorded: S. sanguinis
7 | 1T-141 (KKFIILLFILVQGLIFSATKTLSDIIAL; synthetic novel tartgeting peptide IT-141) | F. nucleatum, P. gingivalis; also recorded: S. epidermidis,; also recorded: S. gordonii, S. mitis, S. mutans,; also recorded: S. oralis, S. sanguinis
8 | 1T-142 (FTQGIKRIVLKRLKED; synthetic novel tartgeting peptide IT-142) | A. naeslundii, F. nucleatum,; also recorded: P. gingivalis,; also recorded: T. denticolaS. gordonii,; also recorded: S. mitis, S. mutans, S. oralis,; also recorded: S. salivarious, S. sanguinis
9 | 1T-143 (MPKRHYYKLEAKALQFGLPFAYSPIQLLK; synthetic novel tartgeting peptide IT-143) | A. naeslundii, F. nucleatum,; also recorded: P. gingivalis; also recorded: S. epidermidis,; also recorded: S. gordonii, S. mitis, S. mutans,; also recorded: S. oralis, S. salivarious,; also recorded: S. sanguinis
10 | 1T-144 (IIELHPKSWTQDWRCSFL; synthetic novel tartgeting peptide IT-144) | A. naeslundii, F. nucleatum,; also recorded: P. gingivalis,; also recorded: T. denticolaS. gordonii,; also recorded: S. mitis, S. mutans, S. oralis,; also recorded: S. salivarious, S. sanguinis
11 | 1T-145 (VEAGKRNISLENIEKISKGLGISISELFKYIEEGEDKIG; synthetic novel tartgeting peptide IT-145) | S. mitis, S. mutans, S. oralis
12 | 1T-146 (RNSADNQTKIDKIRIDISLWDEHLNIVKQGK; synthetic novel tartgeting peptide IT-146) | A. naeslundii, F. nucleatum,; also recorded: P. gingivalis,; also recorded: T. denticolaS. gordonii,; also recorded: S. mitis, S. mutans, S. oralis,; also recorded: S. salivarious, S. sanguinis
13 | 1T-147 (GVENRRFYERDVSKVSMMTSEAVAPRGGSK; synthetic novel tartgeting peptide IT-147) | A. naeslundii, F. nucleatum,; also recorded: P. gingivalis,; also recorded: T. denticolaS. gordonii,; also recorded: S. mitis, S. mutans, S. oralis,; also recorded: S. salivarious, S. sanguinis
14 | 1T-148 (IVELDDTTILERALSMLGEANA; synthetic novel tartgeting peptide IT-148) | A. naeslundii, F. nucleatum,; also recorded: P. gingivalis,; also recorded: T. denticolaS. gordonii,; also recorded: S. mitis, S. mutans, S. oralis,; also recorded: S. salivarious, S. sanguinis
15 | 1T-149 (SVRAVKPIDETVARHFPGDFIVN; synthetic novel tartgeting peptide IT-149) | A. naeslundii, F. nucleatum,; also recorded: P. gingivalis,; also recorded: T. denticolaS. gordonii,; also recorded: S. mitis, S. mutans, S. oralis,; also recorded: S. salivarious, S. sanguinis
16 | 1T-150 (YINRRLKKAFSDADIKEAPAEFYEELRRVQYV; synthetic novel tartgeting peptide IT-150) | A. naeslundii, F. nucleatum,; also recorded: P. gingivalis,; also recorded: T. denticolaS. gordonii,; also recorded: S. mitis, S. mutans, S. oralis,; also recorded: S. salivarious, S. sanguinis
17 | 1T-151 (SVRAVKPIDEIVAWHFPGDFIVN; synthetic novel tartgeting peptide IT-151) | A. naeslundii, F. nucleatum,; also recorded: P. gingivalis,; also recorded: T. denticolaS. gordonii,; also recorded: S. mitis, S. mutans, S. oralis,; also recorded: S. salivarious, S. sanguinis

Row | Substance | Target(s)
18 | 1T-152 (YVSADESAYNHIVTDDIPLADRRIEAVQQ; synthetic novel tartgeting peptide IT-152) | A. naeslundii, F. nucleatum,; also recorded: P. gingivalis; also recorded: S. epidermidis,; also recorded: S. gordonii, S. mitis, S. mutans,; also recorded: S. oralis, S. salivarious,; also recorded: S. sanguinis
19 | 1T-153 (YIACPGYFY; synthetic novel tartgeting peptide IT-153) | A. naeslundii, F. nucleatum,; also recorded: P. gingivalis; also recorded: S. epidermidis,; also recorded: S. gordonii, S. mitis, S. mutans,; also recorded: S. oralis, S. salivarious,; also recorded: S. sanguinis
20 | 1T-154 (YFSFLEIVGMARR; synthetic novel tartgeting peptide IT-154) | P. gingivalis
21 | 1T-155 (LKLAFGVYPFQAMSQSDTAVSERNVLWR; synthetic novel tartgeting peptide IT-155) | A. naeslundii, F. nucleatum,; also recorded: P. gingivalis; also recorded: S. epidermidis,; also recorded: S. gordonii, S. mitis, S. mutans,; also recorded: S. oralis, S. salivarious,; also recorded: S. sanguinis
22 | 1T-156 (GRFQISIRGEEKSKVKVQGKGTFTDRNTT; synthetic novel tartgeting peptide IT-156) | A. naeslundii, F. nucleatum,; also recorded: P. gingivalis,; also recorded: T. denticolaS. gordonii,; also recorded: S. mitis, S. mutans, S. oralis,; also recorded: S. salivarious, S. sanguinis
23 | 1T-157 (RRFRKTTENREKSKNKKAVLGLSTTSTASY; synthetic novel tartgeting peptide IT-157) | A. naeslundii, F. nucleatum,; also recorded: P. gingivalis,; also recorded: T. denticolaS. gordonii,; also recorded: S. mitis, S. mutans, S. oralis,; also recorded: S. salivarious, S. sanguinis
24 | 1T-158 (WENKPSPLGSIKKLQGLVYRLIGYRHFWV; synthetic novel tartgeting peptide IT-158) | A. naeslundii, F. nucleatum,; also recorded: P. gingivalis; also recorded: S. epidermidis,; also recorded: S. gordonii, S. mitis, S. mutans,; also recorded: S. oralis, S. salivarious,; also recorded: S. sanguinis
25 | 1T-159 (IFSLHHFALICSEMGTFAVSKRAKYKWEVL; synthetic novel tartgeting peptide IT-159) | P. gingivalis
26 | 1T-160 (AQYKYINKLLN; synthetic novel tartgeting peptide IT-160) | A. naeslundii, F. nucleatum,; also recorded: P. gingivalis,; also recorded: T. denticolaS. gordonii,; also recorded: S. mitis, S. mutans, S. oralis,; also recorded: S. salivarious, S. sanguinis
27 | 1T-161 (NKVLQVEVMWDGSVVGRPAGVISIKSSKKG; synthetic novel tartgeting peptide IT-161) | A. naeslundii, F. nucleatum,; also recorded: P. gingivalis; also recorded: S. epidermidis,; also recorded: S. gordonii, S. mitis, S. mutans,; also recorded: S. oralis, S. salivarious,; also recorded: S. sanguinis
28 | 1T-162 (QKAKEESDRKAAVSYNGFHRVNVVSIPK; synthetic novel tartgeting peptide IT-162) | A. naeslundii, F. nucleatum,; also recorded: P. gingivalis,; also recorded: T. denticolaS. gordonii,; also recorded: S. mitis, S. mutans, S. oralis,; also recorded: S. salivarious, S. sanguinis
29 | 1T-163 (MENILIYIPMVLSPFGSGILLFLGKDRRYML; synthetic novel tartgeting peptide IT-163) | A. naeslundii, F. nucleatum,; also recorded: P. gingivalis; also recorded: S. epidermidis,; also recorded: S. gordonii, S. mitis, S. mutans,; also recorded: S. oralis, S. salivarious,; also recorded: S. sanguinis
30 | 1T-164 (KKSHSQGKRKLKDLNSAYKIDNQLHYALR; synthetic novel tartgeting peptide IT-164) | A. naeslundii, F. nucleatum,; also recorded: P. gingivalis; also recorded: S. epidermidis,; also recorded: S. gordonii, S. mitis, S. mutans,; also recorded: S. oralis, S. salivarious,; also recorded: S. sanguinis
31 | 1T-165 (CYDSFDFSIFVTFANRMKLSVGS; synthetic novel tartgeting peptide IT-165) | A. naeslundii, F. nucleatum,; also recorded: P. gingivalis; also recorded: S. epidermidis,; also recorded: S. gordonii, S. mitis, S. mutans,; also recorded: S. oralis, S. salivarious,; also recorded: S. sanguinis
32 | 1T-166 (AQSAGQIKRKSKVRIHV; synthetic novel tartgeting peptide IT-166) | A. naeslundii, F. nucleatum,; also recorded: P. gingivalis; also recorded: S. epidermidis,; also recorded: S. gordonii, S. mitis, S. mutans,; also recorded: S. oralis, S. salivarious,; also recorded: S. sanguinis
33 | 1T-167 (SRMSEHSPAGLVFEVGPMDKGSFIILDSYHPTVKK; synthetic novel tartgeting peptide IT-167) | A. naeslundii, F. nucleatum,; also recorded: P. gingivalis; also recorded: S. epidermidis,; also recorded: S. gordonii, S. mitis, S. mutans,; also recorded: S. oralis, S. salivarious,; also recorded: S. sanguinis
34 | 1T-168 (ELHRIMSTEKIGAVTKMNFDTAPIMSILPIDIYPKEVGIGS; synthetic novel tartgeting peptide IT-168) | A. naeslundii, F. nucleatum,; also recorded: P. gingivalis; also recorded: S. epidermidis,; also recorded: S. gordonii, S. mitis, S. mutans,; also recorded: S. oralis, S. salivarious,; also recorded: S. sanguinis
